Measurements reported in patent US6921775B2, “Methods for modulating brain damage” (Children's Medical Center Corporation, priority 2001, dated 2005).

Tests used:
[1] = test system: O4+ OLs in subcortical white matter; test: OL proliferation and maturation in vivo in pups without insult; set-up: species or system rat; conditions: 30 mg/kg topiramate or 20 mg/kg NBQX; for number of proliferating (BrdU labeled, O4+) OLs in subcortical white matter: 4 injections every 12 hours at P7 and P8, no insult, vs vehicle; for maturation of white matter (O4, O1, MBP immunohistostaining), qualitative: 4 injections every 12 hours at P7 and P8, at P9 or P11
Method: Litters of male Long Evans rat pups (Charles River Laboratories, Wilmington, Mass.) were raised with dams in a temperature-controlled environment with 12 hour light-dark cycles. Pups underwent carotid ligation and hypoxia at post-natal-day (P)7. They were recovered on a thermal blanket at 33-34° C. (baseline temperature for P7 rats) and returned to their dam for 48-96 hours prior to sacrifice. Treated pups were given intra-peritoneal (i.p.) injections of 0.1 cc solutions of topiramate, NBQX or vehicle every 12 hours for 48 hours at P7 and P8 for treatment, control and normal development studies.
Oligodendrocyte maturation and myelin expression were evaluated in animals treated for 48 hours with topiramate as compared with normal development. The sub-cortical white matter was evaluated by immunocytochemistry with antibodies to O4, O1 and myelin basic protein (MBP), for changes in pre-myelinating OL populations and in the pattern of MBP expression in rats sacrificed at P9, acutely after treatment. To evaluate for any permanent effect on mature myelination, the quantity of MBP at P28 in animals treated for 48 hours at P7/8 with topiramate was compared with untreated littermates by Western blot.
Histological and immunocytochemical (ICC) analysis was carried out on serial 20-30 μm coronal sections, cut by either cryostat (for pre-mounted sections) or freezing microtome (floating sections) from the anterior extent of the lateral ventricles through the posterior extent of the dorsal hippocampus. Representative sections from all experimental animals were stained with hematoxylin and eosin (HE) for routine evaluation.
For ICC evaluation, adjacent mounted sections were incubated in 5-10% normal goat serum for one hour to block non-specific binding and concurrently permeabilized in 0.1% Triton X-100. Slides were incubated with MBP antibody (SMA-99, Sternberger Monoclonals, Baltimore, Md.) at a dilution of 1:800 in PBS with 1% normal goat serum plus 0.1% Triton overnight at 4° C., followed by Oregon Green (Molecular Probes, Eugene, Oreg.) anti-mouse IgG secondary antibody for one hour at room temperature. […]
Litters were divided and pups received 4 injections, one every 12 hours for 48 hours at P7 and P8, of either vehicle (n=6), 30 mg/kg topiramate (n=7) or 20 mg/kg NBQX (n=7). […] At the completion of 48 hours the animals were sacrificed and the number of BrdU labeled, O4+ OLs present in the subcortical white matter of coronal sections (n=20/group) were counted (FIG. 5B). […] Furthermore, qualitative analysis of white matter by immunohistostaining for OL stage-specific markers O4, O1 and MBP was carried out in serial sections of the same animals evaluated above.

[2] = test system: AMPA receptors in cerebral white matter; test: Intracerebral AMPA injection white matter injury; format: in vivo; conditions: P7 rats, 5 nmol AMPA plus 5 nmol MK-801, systemic NBQX post-treatment, t test p<0.005
Method: The methods used in this example are described in Follett et al. (2000) J. Neurosci. 20:9235-9241, incorporated by reference herein.
NBQX attenuation of the selective white matter injury after hypoxia/ischemia implicated GluR-mediated toxicity as an important mechanism of injury in immature OLs. To confirm a relationship between the activation of AMPA receptors in cerebral white matter and the vulnerability to injury, AMPA was injected directly into immature white matter. […] Minimal to no injury was present in vehicle-injected controls (M K801 alone; n=7) at the same age (t test, p<0.001).
To determine whether AMPA toxicity was age dependent, lesion size after intracerebral AMPA injections at P4, P7, and P11 was compared.

Structure (SMILES)	number of proliferating (BrdU labeled, O4+) OLs in subcortical white matter [1]	maturation of white matter (O4, O1, MBP immunohistostaining), qualitative [1]	white matter injury (lesion size) after intracerebral AMPA [2]
CC1(C)O[C@@H]2[C@@H](CO[C@@]3(COS(N)(=O)=O)OC(C)(C)O[C@@H]23)O1 [topiramate]	No difference in the number of proliferating OLs was detected	No qualitative difference in maturation was seen	–
NS(=O)(=O)c1cccc2c1c([N+](=O)[O-])cc1nc(O)c(O)nc12 [NBQX, 2,3-Dioxo-6-nitro-1,2,3,4-tetrahydrobenzo[f]quinoxaline-7-sulphonamide]	No difference in the number of proliferating OLs was detected	No qualitative difference in maturation was seen	significantly attenuated white matter injury
